In this test the test system is PBMCs from ASF-convalescent animals. Format: cell-based, pig.

For the sequence NSTLVIRI, the “Responding animals (%)” value is recorded as 4/20 (20%) and the “Responding animals (responders/tested)” value is recorded as 4/20 (20%).

For the origin of these results see US11998596B2 (priority 2019, dated 2024).
